{"source": "a melting point compilation (Tetko et al.; mined from patent text by program, amines drawn as free bases though some values may be those of a salt)"}
{"units": {"melting point": "°C"}}
{"smiles": "CO/N=C(\\C)c1cccc(Nc2c3ccccc3nc3occc23)c1", "melting point": "137 to 138"}
{"smiles": "CC(C)(C)Nc1c(NCc2ccncc2)c(=O)c1=O", "melting point": "271 to 272"}
{"smiles": "COC(=O)[C@@H]1C[C@H](OC(=O)c2ccc([N+](=O)[O-])cc2)C[C@H]1C(=O)OCc1ccccc1", "melting point": 79.5}
{"smiles": "O=S(=O)(NCc1ccnc2c(Cl)cccc12)c1ccc(Br)cc1", "melting point": 185}
{"smiles": "Nc1ccc(Cl)c(C(=O)NCC23CC4CC(CC(C4)C2)C3)c1", "melting point": 214}
{"smiles": "CCCNC(=NS(=O)(=O)N(C)C)N1CC(c2ccccc2)C(c2ccc(Cl)cc2)=N1", "note": "(centres undefined)", "melting point": "127 to 129"}
{"smiles": "CC(=O)NCc1ccc(/C=C/C(c2cc(Cl)cc(Cl)c2)C(F)(F)F)cc1", "note": "(centres undefined)", "melting point": "107 to 109"}
{"smiles": "Cc1ccc(-n2ncc(C(=O)O)c2C(N)=O)cc1C", "melting point": "231 to 232"}
{"smiles": "CCc1cc(C)cc(CC)c1C1C(=O)C2CC(COc3nc(C)c(C)s3)CC2C1=O", "note": "(centres undefined)", "melting point": "73 to 74"}
{"smiles": "CCOC(=O)c1cnc2ccc(C(=O)c3ccc(Cl)cc3)cc2c1O", "melting point": "> 300"}
{"smiles": "O=C(N[C@H](Cc1ccccc1)C(=O)O)OCc1ccc2[nH]c(-c3ccccc3)cc2c1", "melting point": "176 to 177"}
{"smiles": "CCc1cc2[nH]c(=O)ccc2c(CC)n1", "melting point": "168 to 169"}
{"smiles": "CN(Cc1ccc(NC(=O)C2=Cc3cc(-c4ccc(Cl)c(Cl)c4)ccc3S(=O)(=O)CC2)cc1)C1CCOCC1", "melting point": "235 to 237"}
{"smiles": "CC(C)(Nc1cccc(C(=N)N)c1)C(=O)Nc1ccc(-c2ccccc2S(N)(=O)=O)cc1", "melting point": 197}
{"smiles": "O=C(O)c1cccc(Cn2cc(C3c4ccccc4C=Cc4ccccc43)c(=S)[nH]c2=S)c1", "melting point": "167 to 170"}
{"smiles": "COc1ccc(OC(N)=O)cc1", "melting point": "> 300"}
{"smiles": "CCOC(=O)[C@@H]1CN(CC2=Cc3ccc(OC)cc32)CC[C@H]1O", "note": "(relative stereo)", "melting point": "156 to 160"}
{"smiles": "COc1cc(CN(O)C(N)=O)ccc1OCc1nc(-c2ccccc2)oc1C", "melting point": "138 to 139"}
{"smiles": "COc1ccc(-c2[nH]c(-c3ccc(F)cc3)cc2C(=O)N2CCOCC2)cc1OC", "melting point": 190}
{"smiles": "CCCc1c(O)c(O)c(C(=O)O)c2ccc(C)cc12", "melting point": "159 to 160"}
{"smiles": "O=C(Nc1c(C(O)(C(F)(F)F)C(F)(F)F)ccc2ccccc12)c1cccc(Br)c1", "melting point": "184 to 185"}
{"smiles": "CCN1CCC2(CC1)COc1cc3c(cc12)N(C(=O)c1ccc(-c2ccc(-c4noc(C)n4)cc2C)cc1)CC3", "melting point": "202 to 204"}
{"smiles": "CCOC(=O)c1cccc(C(=O)CC)c1OCCN(CC)CC", "melting point": "103 to 105"}
{"smiles": "COc1c(C)ccc(C(C)C)c1CO", "melting point": "100 to 101"}
{"smiles": "O=C(c1ccccc1)c1ccc(CO)cc1", "melting point": "59 to 61"}
{"smiles": "FC(F)(F)c1ccc(-c2cc(C(F)(F)F)n3ncc(I)c3c2)cc1", "melting point": 130}
{"smiles": "O=C1c2ccccc2C(=O)c2c(NCCN3CCCCC3)ccc(NCCN3CCCCC3)c21", "melting point": "140 to 141"}
{"smiles": "NS(=O)(=O)c1cc2c(Cl)c(O)ccc2s1", "melting point": "198 to 201"}
{"smiles": "Cc1oc2c(C)c(C)c(N3Cc4ccccc4C3)c(C)c2c1-c1ccc(C(C)C)cc1", "melting point": "126 to 129"}
{"smiles": "CC1CC2=C(CCC(O)C2)C2CCC3(C)C(CO)CCC3C12", "note": "(centres undefined)", "melting point": "64 to 70"}
{"smiles": "O=C(NC(Oc1ccc(Cl)cc1)C(Cl)(Cl)Cl)c1ccccc1O", "note": "(centres undefined)", "melting point": "116 to 117"}
{"smiles": "CCOC(=O)c1sc(CC)nc1C(F)(F)F", "melting point": "30 to 32"}
{"smiles": "COn1c(-c2ccccc2)nc2cnc3ccccc3c21", "melting point": "194 to 195"}
{"smiles": "CC(C)(C)OC(=O)CON1C(=O)c2ccccc2C1=O", "melting point": "140 to 141"}
{"smiles": "COc1cc(C)nc(S(C)(=O)=O)n1", "melting point": 80}
{"smiles": "COc1ccc(N2C(=O)C(O)=C(C(=O)c3ccc(C(C)C)cc3)C2c2ccc(OC(F)(F)F)cc2)nn1", "note": "(centres undefined)", "melting point": 271}
{"smiles": "CC(=O)n1nc(OCC(=O)C(C)(C)C)c(-c2ccccc2)c1-c1ccc(S(C)(=O)=O)cc1", "melting point": "189 to 191"}
{"smiles": "CSCc1c(N)c(Br)cc(F)c1F", "melting point": "60 to 61"}
{"smiles": "O=c1[nH]c2cc3cc(N4CCCC4)ccc3nc2[nH]1", "melting point": "> 300"}
{"smiles": "Cc1cccc(CC(=O)O)c1OCCCc1cn(-c2ccc(C(F)(F)F)nn2)nc1C(C)(C)C", "melting point": "96 to 97"}
{"smiles": "CCOC(=O)C=Cc1cnc(N(Cc2ccc(OC)c(OC)c2)C(=O)OC(C)(C)C)n2nc(-c3ccco3)nc12", "melting point": "124 to 129"}
{"smiles": "COc1cccc(C(=O)O)c1OC(C)=O", "melting point": "139 to 140"}
{"smiles": "CCCC1(CCC)c2cc(Br)ccc2-c2cc(OC)c(Br)cc21", "melting point": "127 to 132"}
{"smiles": "CCCCC1(CC(=O)N(CC)CC)C(=O)N(c2ccccc2)N(c2ccccc2)C1=O", "melting point": "80.5 to 82"}
{"smiles": "O=C1CCC2=C1C(c1ccc(F)c(Br)c1)C1=C(CCS1)N2", "note": "(centres undefined)", "melting point": "> 260"}
{"smiles": "N#CC(N)c1cccc(Cl)c1", "note": "(centres undefined)", "melting point": "31 to 33"}
{"smiles": "CCCOc1ncc(N(C)C)cc1-c1nc2c(CCC)nn(C)c2c(=O)[nH]1", "melting point": 162}
{"smiles": "CS(=O)(=O)OC1=C(C(=O)O)N2C(=O)[C@@H](NC(=O)Cc3ccccc3)[C@H]2CN1", "note": "(racemic)", "melting point": "115 to 117"}
{"smiles": "O=[N+]([O-])c1cc(OCc2ccccc2)c2ccccc2c1CCO", "melting point": "82 to 90"}
{"smiles": "CC1=C(C(=O)Nc2cccc(C(=O)OC(C)C)c2)SCCO1", "melting point": "92 to 94"}
{"smiles": "CNC(=O)N(C)c1nnc(C(C)(C)CCl)s1", "melting point": "159 to 161"}
{"smiles": "Cc1cc(=O)c(-c2ccc(F)cc2)c(C)[nH]1", "melting point": "> 250"}
{"smiles": "COc1ccccc1NC(=O)CN1CCN(c2ncccc2C#N)CC1", "melting point": "174 to 175"}
{"smiles": "OC(CNC1CCc2ccccc2C1)COc1cccc2[nH]ccc12", "note": "(centres undefined)", "melting point": "65 to 68"}
{"smiles": "OCc1cc(F)c(CO)cc1F", "melting point": "268 to 271"}
{"smiles": "COc1cc(-c2nc3ccc(OCCN(C(C)C)C(C)C)cc3n2Cc2ccccc2)cc(OC)c1OC", "melting point": 101}
{"smiles": "O=C(O)CCCNC(=O)c1ccc(Cl)cc1O", "melting point": "131 to 133"}
{"smiles": "CC(C)(CN)c1ccc2nc(-c3ccncc3)[nH]c2c1", "melting point": "199 to 202"}
{"smiles": "O=C(Cl)c1ccc2c(c1I)OCO2", "melting point": "69 to 70"}
{"smiles": "COC(=O)c1cccc(-c2nc(-c3cccc(OC(F)(F)F)c3)cs2)c1", "melting point": "84 to 85"}
{"smiles": "COc1ccc(-c2cc3c(n2CCN(C)C)CCCC3)cc1", "melting point": "81 to 82"}
{"smiles": "Ic1sc2ccccc2c1Oc1ccc(OCc2ccccc2)cc1", "melting point": "87 to 92"}
{"smiles": "C=C1CC2C(=CCC3(C)C2CC(C)C3(O)C(C)=O)C2(C)CCC(=O)C=C12", "note": "(centres undefined)", "melting point": "157 to 158"}
{"smiles": "COC(=O)NCC1=C(n2ccccc2=O)c2cc([N+](=O)[O-])ccc2OC1(C)C", "melting point": 199}
{"smiles": "Cc1cccc(-c2nc(C(C)C)[nH]c2-c2ccc(F)c(-c3cnn(C)c3)c2)n1", "melting point": "77 to 97"}
{"smiles": "CCOC(=O)c1c[nH]c2cc(C(=O)NC3CCN(Cc4ccccc4)CC3)nn2c1=O", "melting point": "264 to 266"}
{"smiles": "O=C1COCC2=C1C(c1ccc(F)c(Br)c1)C1=C(COC1=O)N2", "note": "(centres undefined)", "melting point": "166 to 168"}
{"smiles": "CCN(CC)C(=S)c1c(C)cccc1[Si](C)(C)C", "melting point": "82 to 83"}
{"smiles": "CCOC(=O)NCc1cc(-c2ccccc2)no1", "melting point": 82}
{"smiles": "OCCCC#CC#Cc1ccccc1", "melting point": "50.9 to 51.6"}
{"smiles": "O=C(C=C1CCCN1)c1ccccc1", "melting point": "115 to 116"}
{"smiles": "CN(C)C(=O)NCC(C)(C)c1ccc2nc(-c3ccncc3)[nH]c2c1", "melting point": "136 to 138"}
{"smiles": "O=S(=O)(c1c(F)c(F)c(F)c(F)c1F)c1c(F)c(F)c(F)c(F)c1F", "melting point": 129}
{"smiles": "O=C1Cc2ccc(-c3ccccc3)cc2N1", "melting point": "173 to 175"}
{"smiles": "COc1cc(NC(=O)CN2CCOCC2)c(Cl)cc1Cn1nc(-c2ccc(C(F)(F)F)cc2)oc1=O", "melting point": "178 to 179"}
{"smiles": "N=C1c2nc[nH]c2N(Cc2ccc(Cl)cc2)C2=NCCN12", "melting point": "296 to 299"}
{"smiles": "CC(=O)Nc1ccc(OCCN2CCc3ccc([N+](=O)[O-])cc3CC2)cc1C", "melting point": "132 to 134"}
{"smiles": "N#CN=CNCc1cc(Cl)nc(Cl)c1", "melting point": 160}
{"smiles": "O=C1CS(=O)(=O)C(C(=O)Nc2ccc(Cl)cc2)Cc2cc3c(cc21)OCCO3", "note": "(centres undefined)", "melting point": "273 to 274"}
{"smiles": "Cc1nc(-c2cc(C)c(OCCCc3cnc4ccccc4c3)c(C)c2)no1", "melting point": "105 to 107"}
{"smiles": "CCOC(=O)C1=C(C)NC(C)=C(C(=O)OCC)C1c1ccccc1OCc1ccccc1", "melting point": "134 to 136"}
{"smiles": "CCCCCCCCc1cc2c(cc1/C=C/c1ccc(C(=O)O)cc1)CCC(C)(C)CC2", "melting point": 180}
{"smiles": "Oc1cc2c(cc1C13CC4CC(CC(C4)C1)C3)CCCC2", "melting point": "169 to 170"}
{"smiles": "NC(=O)c1cncc(OCC(O)CO)c1", "note": "(centres undefined)", "melting point": "197 to 199"}
{"smiles": "O=C(O)c1cccc(NC(=S)Nc2ccc3c(Cl)c(OCCBr)oc(=O)c3c2)c1", "melting point": "157 to 158"}
{"smiles": "c1ccc(C2CN3CCN=C3S2)nc1", "note": "(centres undefined)", "melting point": 70}
{"smiles": "CCOC(=O)C1CC(=C2CCN(c3ccccc3)C2=O)c2ccc(Cl)cc2N1", "note": "(centres undefined)", "melting point": "160 to 162"}
{"smiles": "O=C(O)c1cn(-c2ccc(F)cn2)c2nc(Cl)c(F)cc2c1=O", "melting point": "234 to 238"}
{"smiles": "O=[N+]([O-])c1ccc(S)c(Cl)c1", "melting point": "77 to 78"}
{"smiles": "CNC(=O)c1cccc(NC(=O)Cc2ccc([N+](=O)[O-])cc2)c1", "melting point": "148 to 151"}
{"smiles": "Cc1cc(C(C)(C)CBr)c(C)nn1", "melting point": "45 to 46"}
{"smiles": "CC(C)CC(=O)N[C@@H](CC(C)C)C(=O)N[C@@H](Cc1ccccc1)C(=O)CSCc1ccco1", "melting point": "108 to 115"}
{"smiles": "Nc1cc(F)c2[nH]nc(NC(=O)c3ccccc3)c2c1", "melting point": 208}
{"smiles": "Cc1c(C(=O)Nc2ccc(N3CCCCC3)c(C#N)c2)cnn1C", "melting point": "217 to 218"}
{"smiles": "CSc1cccc(NC(C)=N)c1", "melting point": "134 to 135"}
{"smiles": "COCCNc1nccc(-c2ccnc(Nc3cccc(Cl)c3)n2)c1Cl", "melting point": 172}
{"smiles": "O=C(CCCCCOc1ccc(-c2ccccc2)cc1)NO", "melting point": "151 to 152"}
{"smiles": "COc1ccc(CCNc2nc(N)c3nc(-c4ccco4)oc3n2)cc1OC", "melting point": "155 to 158"}
{"smiles": "COc1ccc(/C(=C\\C=O)c2ccccc2OC)cc1", "melting point": "92 to 94"}
{"smiles": "NC(=O)N(O)Cc1ccc(N2CCC3(CC2)OCCO3)cc1", "melting point": "153 to 154"}
{"smiles": "CCc1c(-c2ccc(O)cc2)c2c(COC)cc3cccc1n32", "melting point": "> 130"}
{"smiles": "Cc1cc(S(=O)(=O)N2c3cc(F)ccc3-n3cccc3C2C)ccc1O", "note": "(centres undefined)", "melting point": "191 to 193"}
{"smiles": "O=[N+]([O-])c1cccn2nc(SCc3ccccc3)nc12", "melting point": "125 to 126"}
{"smiles": "COC(=O)c1ncn2c1CN=C(c1ccccc1F)c1cc(Cl)ccc1-2", "melting point": "179 to 181"}
